Assay results reported in patent EP1832655A2, “Methods for detecting and reversing resistance to macrocyclic lactone compounds” (priority 1997, dated 1998).

Tests used:
Format in all cases: in vivo
[1] = tested on: H. contortus susceptible (PF14) strain; experiment: Efficacy of verapamil with or without ivermectin in jirds, susceptible strain; conditions: for % EFFICACY: SUSCEPTIBLE (PF14) strain in jirds, oral, VRP 20 mg/kg, IVM 0.024 mg/kg
Procedure: (§1) Jirds, which are fed on a standard commercial ration to which 0.02% hydrocortisone has been added 5 days prior to infection, are inoculated with 1000 exsheathed L3 H. contortus. On day 10 after inoculation, the jirds are treated with either water or various doses of moxidectin or ivermectin orally. Each treatment group contains 6 jirds. Probit analyses are used to estimate LD50 levels for each anthelmintic against each strain.
(§2) H. contortus. Verapamil is given concomitantly with ivermectin by the oral route. Table 3. DEM[…] H. contortus […] OR S[…] IN JIRDS (n = # per group)

[2] = tested on: MOXIDECTIN-RESISTANT STRAIN OF H. contortus (MOF14); experiment: Effect of verapamil on efficacy of moxidectin and ivermectin in jirds, moxidectin-resistant strain; conditions: for EFFICACY (%) / WORM COUNTS (MEAN ± S.E.): MOF14 in jirds, 7 jirds/group, oral, MOX 0.017 mg/kg, IVM 0.028 mg/kg, VRP 20 mg/kg
[3] = tested on: H. contortus moxidectin-resistant (MOF14) strain; experiment: Efficacy of verapamil with or without ivermectin in jirds, moxidectin resistant strain; conditions: for % EFFICACY: MOX-RESISTANT (MOF14) strain in jirds, oral, VRP 20 mg/kg, IVM 0.046 mg/kg
Procedure: as §1, §2

[4] = verapamil 20 mg/kg, resistant worms in jirds (Example 8)

| Molecule | % EFFICACY [1] | EFFICACY (%) [2] | WORM COUNTS (MEAN ± S.E.) [2] | % EFFICACY [3] | effect on worm counts ([1]; verapamil alone, 20 to 80 mg/kg oral, jirds infected with susceptible or moxidectin resistant H. contortus) | effect of verapamil on the efficacy of moxidectin [2, 4] | increase in efficacy when verapamil is coadministered with ivermectin [2, 4] | effect of verapamil on the efficacy of ivermectin ([3]; verapamil 20 mg/kg, moxidectin resistant worms in jirds (Example 7)) |
| --- | --- | --- | --- | --- | --- | --- | --- | --- |
| 22,23-dihydroavermectin B1 [ivermectin] | 54% | 80% | 9 ± 1 | 79% |  |  |  |  |
| COc1ccc(CCN(C)CCCC(C#N)(c2ccc(OC)c(OC)c2)C(C)C)cc1OC (centres unmarked) [verapamil] | 17% | -73% | 80 ± 9 | -53% | no significant effect on worm counts | significantly increases the efficacy of moxidectin | not significant | significantly enhances the efficacy of ivermectin |
| CO/N=C1\C[C@]2(C[C@@H]3C[C@@H](C/C=C(\C)C[C@@H](C)/C=C/C=C4\CO[C@@H]5[C@H](O)C(C)=C[C@@H](C(=O)O3)[C@]45O)O2)O[C@H](/C(C)=C/C(C)C)[C@H]1C [moxidectin, 23-(O-methyloxime)-LL-F28249α] |  | 70% | 14 ± 3 |  |  |  |  |  |
